Laboratory results: ChEMBL document CHEMBL3046875, “Potential cytotoxic and apoptosis inducing agents: synthesis and evaluation of methoxy-substituted chalcones against human lung and cervical cancers” (Med Chem Res, 2013)
pIC50: −log10 of the molar value.

What was measured:
A549 [1] = test: Cell cycle arrest in Homo sapiens (human) A549 cells assessed as accumulation at G0/G1 phase at IC50 after 48 hr by propidium iodide staining-based flow cytometric analysis (reference value: 74.9%); assay type: functional
HeLa [2] = test: Cell cycle arrest in Homo sapiens (human) HeLa cells assessed as accumulation at G0/G1 phase at IC50 after 48 hr by propidium iodide staining-based flow cytometric analysis (reference value: 63.3%); assay type: functional
A549 [3] = test: Cytotoxicity against Homo sapiens (human) A549 cells assessed as cell viability after 72 hr by MTT assay; assay type: functional, cell-based; details: A549, 72 h
HCT-15 = test: Cytotoxicity against Homo sapiens (human) HCT15 cells assessed as cell viability after 72 hr by MTT assay; assay type: functional, cell-based; details: HCT-15, 72 h
HeLa [4] = test: Cytotoxicity against Homo sapiens (human) HeLa cells assessed as cell viability after 72 hr by MTT assay; assay type: functional, cell-based
A549 [5] = test: Cell cycle arrest in Homo sapiens (human) A549 cells assessed as accumulation at sub G0 phase at IC50 after 48 hr by propidium iodide staining-based flow cytometric analysis (reference value: 1.37%); assay type: functional
HeLa [6] = test: Cell cycle arrest in Homo sapiens (human) HeLa cells assessed as accumulation at sub G0 phase at IC50 after 48 hr by propidium iodide staining-based flow cytometric analysis (reference value: 0.88%); assay type: functional
A549 [7] = test: Cell cycle arrest in Homo sapiens (human) A549 cells assessed as accumulation at G2/M phase at IC50 after 48 hr by propidium iodide staining-based flow cytometric analysis (reference value: 11.03%); assay type: functional
HeLa [8] = test: Cell cycle arrest in Homo sapiens (human) HeLa cells assessed as accumulation at G2/M phase at IC50 after 48 hr by propidium iodide staining-based flow cytometric analysis (reference value: 22.68%); assay type: functional
A549 [9] = test: Cell cycle arrest in Homo sapiens (human) A549 cells assessed as accumulation at S phase at IC50 after 48 hr by propidium iodide staining-based flow cytometric analysis (reference value: 12.83%); assay type: functional
HeLa [10] = test: Cell cycle arrest in Homo sapiens (human) HeLa cells assessed as accumulation at S phase at IC50 after 48 hr by propidium iodide staining-based flow cytometric analysis (reference value: 14.14%); assay type: functional
A549 [11] = test: Cell cycle arrest in Homo sapiens (human) A549 cells assessed as accumulation at sub G0 phase at 2 uM after 48 hr by propidium iodide staining-based flow cytometric analysis (reference value: 1.37%); assay type: functional
HeLa [12] = test: Cell cycle arrest in Homo sapiens (human) HeLa cells assessed as accumulation at sub G0 phase at 2 uM after 48 hr by propidium iodide staining-based flow cytometric analysis (reference value: 0.88%); assay type: functional
A549 [13] = test: Cell cycle arrest in Homo sapiens (human) A549 cells assessed as accumulation at G2/M phase at 2 uM after 48 hr by propidium iodide staining-based flow cytometric analysis (reference value: 11.03%); assay type: functional
HeLa [14] = test: Cell cycle arrest in Homo sapiens (human) HeLa cells assessed as accumulation at G2/M phase at 2 uM after 48 hr by propidium iodide staining-based flow cytometric analysis (reference value: 22.68%); assay type: functional
HeLa [15] = test: Cell cycle arrest in Homo sapiens (human) HeLa cells assessed as accumulation at S phase at 2 uM after 48 hr by propidium iodide staining-based flow cytometric analysis (reference value: 14.14%); assay type: functional
HeLa [16] = test: Cell cycle arrest in Homo sapiens (human) HeLa cells assessed as accumulation at G0/G1 phase at 2 uM after 48 hr by propidium iodide staining-based flow cytometric analysis (reference value: 63.3%); assay type: functional

Row | SMILES | pIC50 (A549 [3]) | pIC50 (HCT-15) | pIC50 (HeLa [4]) | further results
1 | COc1cc(/C=C/C(=O)c2ccccc2F)cc(OC)c1 | 7.36 | 7.68 | 7.20 | Activity (A549 [1]): 2.66%; Activity (HeLa [2]): 70.2%; Activity (A549 [5]): 61.59%; Activity (HeLa [6]): 9.11%; Activity (A549 [7]): 2.22%; Activity (HeLa [8]): 26.68%; Activity (A549 [9]): 9.85%; Activity (HeLa [10]): 18.21%
2 | COc1ccc(C(=O)/C=C/c2c(OC)cc(OC)cc2OC)c(F)c1 | < 4.00 | < 4.00 | < 4.00 | –
3 | COc1cc(/C=C/C(=O)c2ccc(OC)cc2F)cc(OC)c1 | 6.99 | 7.26 | 6.61 | –
4 | COc1ccc(C(=O)/C=C/c2cc(OC)c(OC)cc2OC)c(F)c1 | 6.69 | 7.14 | < 4.00 | –
5 | COc1ccc(C(=O)/C=C/c2ccc(OC)cc2OC)c(F)c1 | < 4.00 | 7.14 | 6.58 | –
6 | COc1ccc(C(=O)/C=C/c2cc(OC)c(OC)c(OC)c2)c(F)c1 | 6.97 | 7.30 | 6.84 | –
7 | COc1ccc(C(=O)/C=C/c2ccc(OC)c(OC)c2OC)c(F)c1 | 6.97 | 7.50 | 6.68 | –
8 | COc1ccc(/C=C/C(=O)c2ccccc2F)c(OC)c1 | 7.06 | 7.25 | 6.76 | Activity (A549 [1]): 5.64%; Activity (HeLa [2]): 22.61%; Activity (A549 [5]): 20.48%; Activity (HeLa [6]): 29.37%; Activity (A549 [7]): 6.18%; Activity (HeLa [8]): 56.9%; Activity (A549 [9]): 59.98%; Activity (HeLa [10]): 12.64%
9 | COc1cc(OC)c(OC)cc1/C=C/C(=O)c1ccccc1F | 7.10 | 7.26 | 6.53 | –
10 | COc1ccc(OC)c(/C=C/C(=O)c2ccccc2F)c1 | 6.95 | 7.21 | 7.02 | Activity (A549 [1]): 1.36%; Activity (HeLa [2]): 7.9%; Activity (A549 [5]): 20.31%; Activity (HeLa [6]): 27.52%; Activity (A549 [7]): 16.84%; Activity (HeLa [8]): 35.28%; Activity (A549 [9]): 89.78%; Activity (HeLa [10]): 0.94%
11 | COc1cc(OC)c(/C=C/C(=O)c2ccccc2F)c(OC)c1 | < 4.00 | 7.10 | 7.30 | –
12 | COc1cc(/C=C/C(=O)c2ccccc2F)cc(OC)c1OC | < 4.00 | 6.87 | 6.64 | –
13 | COc1cccc2c1C(=O)c1c(O)c3c(c(O)c1C2=O)C[C@@](O)(C(=O)CO)C[C@@H]3O[C@H]1C[C@H](N)[C@H](O)[C@H](C)O1.Cl [DOXORUBICIN HYDROCHLORIDE] | – | – | – | Activity (A549 [11]): 1.34%; Activity (HeLa [12]): 61.55%; Activity (A549 [13]): 0.98%; Activity (HeLa [14]): 36.19%; Activity (HeLa [15]): 55.74%; Activity (HeLa [16]): 30.86%
